Data as given in patent publication US4992450A, “Piperidine opioid antagonists” (Eli Lilly and Company, priority 1989, dated 1991).
Where a name gives a salt, the structure may show the parent alone. Read-outs that look alike come from different tables or passages of the source.

What was measured:
kappa receptor = target: T1, kappa receptor (Mus musculus, UniProt P33534); test: in vivo; set-up: species or system CF-1 male mice; conditions: sc, read-out: Kappa AD50
T1 construct: Five CF-1 male mice (Charles River, Portage, Mich.); from tissue; host or cells: whole living CF-1 male mice (in vivo)
T1 sequence (P33534 whole entry): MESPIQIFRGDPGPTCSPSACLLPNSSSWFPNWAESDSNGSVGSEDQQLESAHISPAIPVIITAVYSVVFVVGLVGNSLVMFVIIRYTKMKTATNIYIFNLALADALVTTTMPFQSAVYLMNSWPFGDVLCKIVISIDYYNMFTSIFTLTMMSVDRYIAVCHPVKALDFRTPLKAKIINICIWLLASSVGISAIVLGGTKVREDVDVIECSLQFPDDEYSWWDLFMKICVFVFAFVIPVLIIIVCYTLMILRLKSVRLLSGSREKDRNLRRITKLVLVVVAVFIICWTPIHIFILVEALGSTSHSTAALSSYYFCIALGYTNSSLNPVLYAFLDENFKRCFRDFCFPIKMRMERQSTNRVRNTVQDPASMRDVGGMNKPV

kappa receptors = target: T2, kappa receptors (Rattus norvegicus, UniProt P34975); test: Rat diuresis assay, antagonism of bremazocine-induced urination; assay type: in vivo, male Long-Evans hooded rats; conditions: sc, rats, s.c., urinary output reduced to 50% of effect of 0.08 mg/kg bremazocine alone
T2 construct: sixty male Long-Evans hooded rats; from tissue; host or cells: whole living male Long-Evans hooded rats (in vivo)
T2 sequence (P34975 whole entry): as the sequence (P33534 whole entry) above, with D11E, S17A, S51P, A308V counted along it
Experimental: As such, the compounds of the invention were also evaluated in a rat diuresis assay conducted according to the following procedure described by Leander et al. in Drug Development Research 4:421-427 (1984) in an effort to further establish the ability of the present compounds to block kappa receptors.
According to this procedure, sixty male Long-Evans hooded rats (Charles River Breeding Laboratories, Portage, Mich.) weighing between about 300 and 500 grams each were housed either individually or in pairs in a temperature-controlled (23° C.) colony room which was illuminated between 6:00 A.M. and 6:00 P.M. Rodent chow and tap water were continuously available except during the measurement of urine output. The animals were used repeatedly, but no more frequently than twice a week.
The animals were then injected with various doses of the test compounds. To measure urine output, the animals were removed from the home cages, weighed, injected and placed in metabolism cages for 5 hr. Excreted urine was funneled into graduated cylinders. Cumulative urine volumes were determined at designated time intervals, usually at 2 and 5 hr after injection.
The compounds which are salt forms were dissolved in distilled water. If necessary, the compounds were dissolved in distilled water with the aid of either a few drops of lactic acid or hydrochloric acid and gentle warming. All injections were s.c. in a volume of 1 ml/kg of body weight. During tests for antagonism, two injections were given, one on each side of the body.
In the Table, column 1 provides the Example Number of the compound tested; column 2, the amount of compound in mg/kg necessary to reduce the urinary output to 50% of the effect produced by 0.08 mg/kg of bremazocine alone two hours after injection of bremazocine and the test compound; and column 3, the amount of compound in mg/kg necessary to reduce the urinary output to 50% of the effect produced by 0.08 mg/kg of bremazocine alone five hours after injection of bremazocine and the test compound.

mu receptor = target: T3, mu receptor (Mus musculus, UniProt P42866); test: Mouse writhing assay, antagonism of morphine analgesia (mu); assay type: in vivo, CF-1 male mice; conditions: sc, read-out: Mu AD50
T3 construct: Five CF-1 male mice (Charles River, Portage, Mich.); from tissue; host or cells: whole living CF-1 male mice (in vivo)
T3 sequence (P42866 whole entry): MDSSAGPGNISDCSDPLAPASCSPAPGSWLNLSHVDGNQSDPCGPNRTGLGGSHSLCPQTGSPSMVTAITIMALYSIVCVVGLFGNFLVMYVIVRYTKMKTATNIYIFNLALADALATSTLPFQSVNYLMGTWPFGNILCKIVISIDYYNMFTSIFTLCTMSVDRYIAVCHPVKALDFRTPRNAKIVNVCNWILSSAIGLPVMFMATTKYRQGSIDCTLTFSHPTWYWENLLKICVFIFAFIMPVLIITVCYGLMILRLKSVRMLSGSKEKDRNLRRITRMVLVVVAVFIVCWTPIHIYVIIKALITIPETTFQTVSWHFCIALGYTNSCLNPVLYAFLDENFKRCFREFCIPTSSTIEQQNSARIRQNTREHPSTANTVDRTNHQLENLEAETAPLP

[1] = system: meal fed obese Zucker rats; test: Food consumption assay in meal fed obese Zucker rats; assay type: in vivo; conditions: Rattus norvegicus, sc, 4 h, amount to decrease food consumption 20% during first four hours
Excerpt: The following assay was employed to evaluate the ability of the compounds of the invention to effect food and water consumption of meal fed obese Zucker rats.
According to this procedure, 3-4 month old obese Zucker rats were trained to eat food daily from 8:00 A.M. to 4:00 P.M. only, such that the body weight gain approximates that if the rats were fed ad libitum. These rats were allowed to consume water at all times. Four groups of rats with four rats in each group, two female and two male, were formed. One group served as control for the other three groups each day. Each of the other groups were given a subcutaneous dose of the compound to be evaluated. The test compound was formulated in physiological saline containing 10% dimethylsulfoxide by volume.
Animals remained drug free for 4 days before the next test. Food and water consumption of each rat were measured for the first four hours. A test on one compound was run for three consecutive days. The drug effect was expressed as the percent of the control for that test day.
In the Table, column 1 gives the Example Number of the compound evaluated; and column 2 provides the ED20 in mg/kg, wherein ED20 represents the amount of compound evaluated in mg/kg necessary to decrease food consumption 20% during the first four hours of the experiment.

[2] = 2 h, two hours after injection, read-out: AD50 Two Hours
[3] = 5 h, five hours after injection, read-out: AD50 Five Hours

Structure (SMILES)	ED50 (kappa receptor) [mg/kg]	ED50 (kappa receptors; [2]) [mg/kg]	ED50 (kappa receptors; [3]) [mg/kg]	ED50 (mu receptor) [mg/kg]	ED20 [1] [mg/kg]
C[C@H]1CN(CCCc2cccs2)CC[C@@]1(C)c1cccc(O)c1 (stereo in doubt) [Example 36, trans-(+)-1-[3-(2-Thienyl)propyl]-3,4-dimethyl-4-(3-hydroxyphenyl)piperidine]	0.11	4.65	1.65	0.05	0.05
CCCC(O)CCN1CC[C@@](C)(c2cccc(O)c2)[C@@H](C)C1 (relative stereo) [Example 30, trans-(±)-1-[R,S-(3-Hydroxyhexyl)]-3,4-dimethyl-4-(3-hydroxyphenyl)piperidine hydrochloride]	0.47			0.11	
CC(C)CCCCN1CC[C@@](C)(c2cccc(O)c2)[C@@H](C)C1 (stereo in doubt) [Example 28, trans-(+)-1-(5-Methylhexyl)-3,4-dimethyl-4-(3-hydroxyphenyl)piperidine hydrochloride]	0.22			0.08	0.12
CC1CN(CCC(C)(C)C)CCC1(C)c1cccc(O)c1 (stereo not drawn) [Example 12, trans-(±)-1-(3,3-Dimethylbutyl)-3,4-dimethyl-4-(3-hydroxyphenyl)piperidine hydrochloride]	0.42	7.89	8.13	0.56	
C[C@@H]1CN(CCCc2cccs2)CC[C@]1(C)c1cccc(O)c1 (stereo in doubt) [Example 37, trans-(-)-1-[3-(2-Thienyl)propyl]-3,4-dimethyl-4-(3-hydroxyphenyl)piperidine hydrochloride]	0.65	2.92	1.66	0.24	0.19
O=C1CC[C@@]2(O)[C@H]3Cc4ccc(O)c5c4[C@@]2(CCN3CC2CC2)[C@H]1O5 [Compound F, naltrexone, reference compound]					2.05
CCCCCN1CCC(C)(c2cccc(O)c2)C(C)C1 (stereo not drawn) [Example 14, trans-(±)-1-(n-Pentyl)-3,4-dimethyl-4-(3-hydroxyphenyl)piperidine hydrochloride]	0.6	0.78	0.69	0.37	4.47
CCCCCCN1CCC(C)(c2cccc(O)c2)C(C)C1 (stereo not drawn) [Example 22, trans-(±)-1-(n-Hexyl)-3,4-dimethyl-4-(3-hydroxyphenyl)piperidine hydrochloride]	0.11	1.31	0.7	0.05	0.78
CC(C)CCCCN1CC[C@](C)(c2cccc(O)c2)[C@H](C)C1 (stereo in doubt) [Example 29, trans-(-)-1-(5-Methylhexyl)-3,4-dimethyl-4-(3-hydroxyphenyl)piperidine hydrochloride]	0.89			0.35	0.31
C[C@H]1CN(CC[C@@H](O)C2CCCCC2)CC[C@@]1(C)c1cccc(O)c1 [Example 25, trans-(+)-1-[R-(3-Hydroxy-3-cyclohexylpropyl)]-3,4-dimethyl-4-(3-hydroxyphenyl)piperidine]	0.36			0.03	0.13
CCCCCC(=O)CCN1CCC(C)(c2cccc(O)c2)C(C)C1 (stereo not drawn) [Example 32, trans-(±)-1-(3-Oxo-n-octyl)-3,4-dimethyl-4-(3-hydroxyphenyl)piperidine hydrochloride]	3.5			0.17	
CC1CN(CCc2cccs2)CCC1(C)c1cccc(O)c1 (stereo not drawn) [Example 38, trans-(±)-1-[2-(2-Thienyl)ethyl]-3,4-dimethyl-4-(3-hydroxyphenyl)piperidine hydrochloride]	0.25		2	0.25	
C[C@H]1CN(CCC(=O)c2ccccc2)CC[C@@]1(C)c1cccc(O)c1 (relative stereo) [Compound C, 3-[4β-(3-Hydroxyphenyl)-3β,4α-dimethylpiperidino]propiophenone maleate, reference compound]	4.5			0.14	3.72
CC1CN(CCC2CCCCC2)CCC1(C)c1cccc(O)c1 (stereo not drawn) [Example 13, trans-(±)-1-(2-Cyclohexylethyl)-3,4-dimethyl-4-(3-hydroxyphenyl)piperidine hydrochloride]	0.12			0.1	4.56
CC1CN(CC2CCCC2)CCC1(C)c1cccc(O)c1 (stereo not drawn) [Example 5, trans-(±)-1-(Cyclopentylmethyl)-3,4-dimethyl-4-(3-hydroxyphenyl)piperidine hydrochloride]	0.54	1.91	0.92	1.01	
CC1CN(CCCC2CCCC2)CCC1(C)c1cccc(O)c1 (stereo not drawn) [Example 9, trans-(±)-1-(3-Cyclopentylpropyl)-3,4-dimethyl-4-(3-hydroxyphenyl)piperidine hydrochloride]	0.13	2.4	0.79	0.12	1.25
CC1CN(CCCc2cccs2)CCC1(C)c1cccc(O)c1 (stereo not drawn) [Example 35, trans-(±)-1-[3-(2-Thienyl)propyl]-3,4-dimethyl-4-(3-hydroxyphenyl)piperidine hydrochloride]	0.3	2.2	1.04	0.22	0.08
CC1CN(CCC(=O)C2CCCCC2)CCC1(C)c1cccc(O)c1 (stereo not drawn) [Example 33, trans-(±)-1-(3-Oxo-3-cyclohexylpropyl)-3,4-dimethyl-4-(3-hydroxyphenyl)piperidine hydrochloride]	0.26			0.12	
CCCCCCN1CC[C@](C)(c2cccc(O)c2)[C@H](C)C1 (stereo in doubt) [Example 2, trans-(-)-1-(n-Hexyl)-3,4-dimethyl-4-(3-hydroxyphenyl)piperidine hydrochloride]	0.29			0.21	1.25
CCCCCCN1CC[C@@](C)(c2cccc(O)c2)[C@@H](C)C1 (stereo in doubt) [Example 1, trans-(+)-1-(n-Hexyl)-3,4-dimethyl-4-(3-hydroxyphenyl)piperidine hydrochloride]	0.22			0.26	0.08
C=CCN1CC[C@]23c4c5ccc(O)c4O[C@H]2C(=O)CC[C@@]3(O)[C@H]1C5 [Compound E, naloxone, reference compound]					1.4
CC(C)C(O)CCN1CC[C@@](C)(c2cccc(O)c2)[C@@H](C)C1 (relative stereo) [Example 20, trans-(±)-1-[R,S-(3-Hydroxy-4-methylpentyl)]-3,4-dimethyl-4-(3-hydroxyphenyl)piperidine hydrochloride]	0.35			0.14	0.91
CCCCCCCN1CCC(C)(c2cccc(O)c2)C(C)C1 (stereo not drawn) [Example 8, trans-(±)-1-(n-Heptyl)-3,4-dimethyl-4-(3-hydroxyphenyl)piperidine hydrochloride]	0.64	3.77	3.33	0.21	0.44
C[C@H]1CN(CCC(O)C2CCCC2)CC[C@@]1(C)c1cccc(O)c1 (relative stereo) [Example 18, trans-(±)-1-[R,S-(1-Cyclopentylpropanol-3-yl)]-3,4-dimethyl-4-(3-hydroxyphenyl)piperidine hydrochloride]	0.08			0.04	0.07
